Consider 18 compounds from patent US12110287B2, “Heterocyclic derivatives as Nav1.7 and Nav1.8 blockers” (RaQualia Pharma Inc., priority 2018, dated 2024).

Some results are limits rather than exact numbers.

The first assay deals with T1, Nav1.7 (Homo sapiens, UniProt Q15858). The experiment in a line: Electrophysiology assay (whole cell patch clamp), affinity to inactivated state. Details: expressed in transfected cells. As to conditions: affinity to inactivated state (Kinact), read-out: activity (Ki) against Nav1.7. The class given is cell-based. The method, then: Whole cell patch clamp recording is used to assess the efficacy or selectivity of Na (Sodium) channel blocker on human voltage gated sodium channels. Na channel expressing cells are dissociated by 0.05% Trypsin-EDTA or Accutase, and then seeded on cover glass for 2-24 hours.
T1 sequence (Q15858 whole entry): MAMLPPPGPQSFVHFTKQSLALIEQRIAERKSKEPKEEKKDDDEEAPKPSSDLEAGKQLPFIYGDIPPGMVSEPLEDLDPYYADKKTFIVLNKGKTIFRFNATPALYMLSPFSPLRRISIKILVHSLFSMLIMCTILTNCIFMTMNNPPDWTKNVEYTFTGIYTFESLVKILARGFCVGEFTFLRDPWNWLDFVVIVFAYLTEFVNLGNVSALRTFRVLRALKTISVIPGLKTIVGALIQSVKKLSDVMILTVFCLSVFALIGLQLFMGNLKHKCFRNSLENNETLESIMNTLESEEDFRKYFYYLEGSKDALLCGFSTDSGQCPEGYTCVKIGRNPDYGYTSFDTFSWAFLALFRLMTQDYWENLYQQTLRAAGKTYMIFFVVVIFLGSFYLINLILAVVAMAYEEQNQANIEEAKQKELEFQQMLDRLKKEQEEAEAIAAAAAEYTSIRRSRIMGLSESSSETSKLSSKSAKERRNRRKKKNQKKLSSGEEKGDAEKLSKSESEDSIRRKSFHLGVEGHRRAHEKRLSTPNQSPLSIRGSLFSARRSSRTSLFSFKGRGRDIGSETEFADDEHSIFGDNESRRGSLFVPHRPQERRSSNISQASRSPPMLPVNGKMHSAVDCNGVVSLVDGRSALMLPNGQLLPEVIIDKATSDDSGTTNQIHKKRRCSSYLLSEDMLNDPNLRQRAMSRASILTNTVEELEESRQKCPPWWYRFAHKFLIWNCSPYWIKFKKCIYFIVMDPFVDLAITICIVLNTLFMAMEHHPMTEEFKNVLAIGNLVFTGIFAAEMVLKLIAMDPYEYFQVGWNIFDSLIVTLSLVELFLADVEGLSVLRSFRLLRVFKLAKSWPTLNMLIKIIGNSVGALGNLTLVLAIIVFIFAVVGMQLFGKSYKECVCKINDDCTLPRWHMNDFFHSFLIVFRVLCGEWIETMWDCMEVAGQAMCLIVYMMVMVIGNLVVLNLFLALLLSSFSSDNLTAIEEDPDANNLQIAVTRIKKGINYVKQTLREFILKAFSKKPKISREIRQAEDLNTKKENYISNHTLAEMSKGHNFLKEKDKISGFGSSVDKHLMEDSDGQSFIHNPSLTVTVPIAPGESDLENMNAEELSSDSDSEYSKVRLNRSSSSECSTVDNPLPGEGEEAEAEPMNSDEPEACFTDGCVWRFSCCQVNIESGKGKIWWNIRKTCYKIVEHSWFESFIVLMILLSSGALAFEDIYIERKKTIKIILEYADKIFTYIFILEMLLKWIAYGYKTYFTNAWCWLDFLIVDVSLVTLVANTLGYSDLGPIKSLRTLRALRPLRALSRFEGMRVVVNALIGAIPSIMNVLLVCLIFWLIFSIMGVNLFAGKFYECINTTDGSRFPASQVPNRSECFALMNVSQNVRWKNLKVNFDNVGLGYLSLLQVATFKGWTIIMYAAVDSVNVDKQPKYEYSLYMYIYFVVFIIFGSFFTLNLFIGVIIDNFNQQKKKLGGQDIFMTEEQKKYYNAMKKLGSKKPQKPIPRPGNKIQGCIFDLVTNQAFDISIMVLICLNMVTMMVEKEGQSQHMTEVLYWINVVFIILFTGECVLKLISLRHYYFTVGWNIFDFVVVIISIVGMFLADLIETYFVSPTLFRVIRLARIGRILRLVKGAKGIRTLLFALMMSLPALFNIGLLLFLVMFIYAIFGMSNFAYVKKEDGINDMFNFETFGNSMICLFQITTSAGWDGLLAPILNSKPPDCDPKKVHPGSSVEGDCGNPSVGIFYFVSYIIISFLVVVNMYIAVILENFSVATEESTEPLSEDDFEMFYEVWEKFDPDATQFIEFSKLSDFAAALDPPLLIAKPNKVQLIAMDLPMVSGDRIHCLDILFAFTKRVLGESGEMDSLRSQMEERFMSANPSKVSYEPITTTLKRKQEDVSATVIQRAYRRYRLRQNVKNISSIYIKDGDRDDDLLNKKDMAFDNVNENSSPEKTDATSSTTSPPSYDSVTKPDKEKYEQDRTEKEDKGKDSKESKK
Manual patch clamp recordings are conducted at rt using the voltage-clamp amplifier (Axon Instruments or HEKA electronik). Electrodes are pulled with P-97 electrode puller (Sutter Instrument). The electrode resistances are 1-3 MOhm when intercellular solution is filled. Currents are lowpass filtered between 2-5 kHz and digitally sampled at 10 kHz. […]
After whole-cell configuration is achieved, cell is monitored at least 10 minutes to allow cell dialysis with pipette solution. […]
Peak currents evoked by Test 1 and Test 2 pulses are sampled with Clampex (Axon Instruments) or Pulse+Pulse Fit (HEKA). Averaged peak currents under vehicle or test compounds are calculated from 3 data points at end of each condition.
Inhibitory effects (% inhibition) on peak currents at Test 1 or Test 2 pulse are plotted against test concentration and IC50 values at Test 1 (Closed IC50) or Test 2 (Inactivated IC50) are calculated with Hill equation, respectively. […]
After whole-cell configuration is achieved, the cell is monitored at least 10-15 minutes to allow cell dialysis with pipette solution. […]
On the technique in general: The patch-clamp technique gives a direct electrical read-out from membranes.
On to `O=C(N[C@@H]1CCN(c2ncc(C(F)(F)F)cc2Cl)C1)c1ccnc(NC(=O)C2CC2)c1` [Example 9], for which the Ki was less than 200 nM.

A further assay addresses T1, Nav1.7. The experiment in a line: EFS-FRET assay. Further details: expressed in transfected cells; host or cells: CHO (Chinese hamster ovary) cells. Type of assay: cell-based. As to conditions: CHO cells expressing human Nav1.7 channels, read-out: IC50 against Nav1.7. The method, then: This screen is used to determine the effects of compounds on human Nav1.7 channels, utilizing electrical field stimulation (EFS) system in 96-well plate format on FDSS (Hamamatsu Photonics) platform. The changes of membrane potential are monitored with FRET dye pair, DiSBAC2(3) and PTS18.
CHO (Chinese hamster ovary) cells expressing human Nav1.7 channels are grown in T225 flasks, in a 5% CO2 humidified incubator to about 80% confluence. Media composition consists of HAM/F12 with Glutamax I, 10% FCS, 100 units/mF penicillin and 100 microgram/mF hygromycin.
• Seed each cell lines (1×10^5 cells/well) into 96-well plates prior to experimentation. • Incubate at 37° C. in 5% CO2 for 24 hours. • Wash each well with assay buffer (140 mM NaCl, 4.5 mM KCl, 10 mM D-Glucose, 2 mM CaCl2, 1 mM MgCl2, 10 mM HEPES, pH 7.4 adjusted with NaOH) twice. • Add 1st loading solution containing 10 microM PTS18 and 0.06% Pluronic F-127 in assay buffer. • Incubate the plate at rt in dark for 1 hour. • Remove 1st loading solution and add 2nd loading solution containing 12.5 microM DiSBAC2(3), 1.25 mM Xylene Fast Yellow and 0.0075% Pluronic F-127 in assay buffer. • Place the plate under the dark at rt for 25 minutes. • Add compound solutions into the assay plate. • Set the assay plate in FDSS and place an EFS device on the plate. • Measure EFS-induced fluorescent response by FDSS.
The data are analyzed and reported as normalized ratios of intensities measured at […]. The process of calculating these ratios is performed as follows:
This analysis is performed using a computerized specific program designed for FDSS generated data. Fluorescence ratio values are plotted using XLfit to determine an IC50 value for each compound.
Usually IC50 stands for the concentration at which inhibition is half-maximal. `O=C(N[C@@H]1CCN(c2ncc(C(F)(F)F)cc2Cl)C1)c1ccnc(NC(=O)C2CC2)c1` [Example 9]: the IC50 was less than 500 nM.
Turning to `Cc1cc(C(=O)N[C@@H]2CCN(c3ncc(C(F)(F)F)cc3Cl)C2)cc(NC(=O)C(C)C)n1` [Example 104], the IC50 is less than 500 nM.
For `CCC(=O)Nc1cc(C(=O)N[C@H]2CN(c3ncc(C(F)(F)F)cc3Cl)CC23CC3)cc(C)n1` [Example 107], the IC50 is less than 500 nM.
On to `CC(C)C(=O)Nc1cc(C(=O)N[C@H]2CN(c3ncc(C(F)(F)F)cc3Cl)CC23CC3)ccn1` [Example 109], for which the IC50 was less than 500 nM.
`Cc1cc(C(=O)N[C@@H]2CCCN(c3ncc(C(F)(F)F)cc3Cl)C2)nc(NC(=O)C2CC2)n1` [Example 114]: the IC50 was less than 500 nM.
Consider `CCC(=O)Nc1cc(C(=O)N[C@H]2CN(c3ncc(C(F)(F)F)cc3Cl)CC23CC3)ccn1` [Example 116], for which the IC50 is less than 500 nM.
Same read-out and setting: the value for `CC(=O)Nc1cc(C(=O)N[C@H]2CN(c3ncc(C(F)(F)F)cc3Cl)CC23CC3)cc(C)n1` [Example 117] was less than 500 nM; that for `Cc1cc(C(=O)N[C@H]2CN(c3ncc(C(F)(F)F)cc3Cl)CC23CC3)cc(NC(=O)C(C)C)n1` [Example 118] was less than 500 nM.
In the case of `O=C(N[C@H]1CN(c2ncc(C(F)(F)F)cc2Cl)CC12CC2)c1ccnc(NC(=O)C2CC2)n1` [Example 119], the 50% inhibitory concentration (IC50) is less than 500 nM.
Same read-out and setting: the value for `CC(=O)Nc1cc(C(=O)N[C@@H]2CCN(c3ccc(C(F)(F)F)cc3)C2)ccn1` [Example 120] was less than 500 nM.
With `O=C(N[C@@H]1CCN(c2ccc(C(F)(F)F)cc2F)C1)c1ccnc(NC(=O)C2CC2)n1` [Example 121], the IC50 was less than 500 nM.
With `CC(C)C(=O)Nc1cc(C(=O)N[C@@H]2CCN(c3ccc(C(F)(F)F)c(F)c3)C2)ccn1` [Example 123], the IC50 was less than 500 nM.
On the same count and under the same terms, the value for `O=C(N[C@@H]1CCCN(c2ccc(OC(F)(F)F)cc2Cl)C1)c1ccnc(NC(=O)C2CC2)c1` [Example 125] was less than 500 nM; that for `O=C(N[C@@H]1CCCN(c2ccc(OC(F)(F)F)cc2Cl)C1)c1ccnc(NC(=O)C2CC2)n1` [Example 126] was less than 500 nM; that for `CC(C)C(=O)Nc1cc(C(=O)N[C@@H]2CCCN(c3ccc(OC(F)(F)F)cc3Cl)C2)ccn1` [Example 127] was less than 500 nM.
With `Cc1cc(C(=O)N[C@@H]2CCCN(c3ccc(OC(F)(F)F)cc3Cl)C2)cc(NC(=O)C(C)C)n1` [Example 128], the IC50 was less than 500 nM.
Same read-out and setting: the value for `CCC(=O)Nc1cc(C(=O)N[C@@H]2CCCN(c3ccc(OC(F)(F)F)cc3Cl)C2)ccn1` [Example 129] was less than 500 nM; that for `Cc1cc(C(=O)N[C@@H]2CCCN(c3ccc(OC(F)(F)F)cc3Cl)C2)nc(NC(=O)C2CC2)n1` [Example 132] was less than 500 nM.
